The subject of one series is HepG-2 cell line. Description: MTT cytotoxicity on HepG-2 cell line. The series is classed as cell-based, human. To be noted: 24 hours.
A further series deals with A549/DDP tumor model. Put plainly: Anti-tumor effect, A549/DDP subcutaneous tumor model. The series is classed as in vivo, nude mice. To be noted: platinum 1 mg/kg once every 5 days, 25 days.
A further series deals with A549 tumor model. Put plainly: Anti-tumor effect, A549 subcutaneous tumor model. The series is classed as in vivo.
The nature of series [1]: Serum ALT, AST, ALP and urea nitrogen after treatment. Conditions: 7 days after complete injection; tail vein, once every 5 days, 5 administrations. The series is classed as in vivo, Balb/c mice. As to the method:
12. […] Each mouse was administered via the tail vein (1 mg/mL, once every 5 days). After a total of 5 administrations for 25 days, each mouse was taken by eyeball blood sampling at 7, 14, 21, and 28 days after administration. A 0.5 mL blood sample from a mouse was placed overnight at 4° C. and centrifuged at 1000 rpm for 5 min. The upper clarified serum 200 μL was taken out to measure the alanine aminotransferase (ALT), aspartate aminotransferase (AST), alkaline phosphatase (ALP) and urea nitrogen (Urea) contents.

Protocol for HepG-2 cell line: Placing the plate in a cell incubator for 12 hours at constant temperature. […] After 24 hours in the incubator, replace the culture medium, add 10 μL of MTT (3-(4,5-dimethylthiazol-2-yl)-2,5-diphenyltetrazolium bromide) PBS (phosphate-buffered saline) solution with a concentration of 5 mg/mL, discard the culture medium after 4 hours, add 200 μL of DMSO (dimethylsulfoxide), shake for 10 minutes, measure the absorbance value at 490 nm with a microplate reader.

Consider `N.N.[Cl][Pt][Cl]` [cisplatin], for which the “IC50 for HepG-2 cell line” value in the series on HepG-2 cell line is 12.6 µg/mL. For the same compound, the “effect on tumor growth” value with A549/DDP tumor model is reported as “a certain tumor-inhibiting effect”; with A549 tumor model (A549 tumor model, platinum 1 mg/kg once every 5 days, 25 days), “a certain tumor-inhibiting effect”. Also, the “condition of the nude mice during the observation period” value in the series with A549 tumor model (mouse, in vivo) was “in poor condition and lost weight”. Also, the “serum urea nitrogen content versus control group” value in series [1] is reported as “significantly different from that of the control group”.

For the origin of these results see patent US12364667B2, “Anti-tumor platinum-based drug mineralized protein nanoparticle, preparation method therefor and use thereof” (SOOCHOW UNIVERSITY, priority 2019, dated 2025).
